In ChEMBL document CHEMBL1255447, “Efflux pumps, OprD porin, AmpC beta-lactamase, and multiresistance in Pseudomonas aeruginosa isolates from cystic fibrosis patients” (2010):
≈ marks a conversion by molar mass, not a printed value.

Experiments:
[1] = system: Pseudomonas aeruginosa; experiment: Antimicrobial activity against Pseudomonas aeruginosa 1405-con D2 by Etest; type: functional
[2] = system: Pseudomonas aeruginosa; experiment: Antimicrobial activity against Pseudomonas aeruginosa isolate 14169c from fibrosis patient by Etest; type: functional
[3] = system: Pseudomonas aeruginosa; experiment: Antimicrobial activity against Pseudomonas aeruginosa isolate 1665 from fibrosis patient by Etest; type: functional
[4] = system: Pseudomonas aeruginosa; experiment: Antimicrobial activity against Pseudomonas aeruginosa isolate 17112 from fibrosis patient by Etest; type: functional
[5] = system: Pseudomonas aeruginosa; experiment: Antimicrobial activity against Pseudomonas aeruginosa R70 Etest; type: functional
[6] = system: Pseudomonas aeruginosa; experiment: Antimicrobial activity against Pseudomonas aeruginosa isolate 1530c from fibrosis patient by Etest; type: functional
[7] = system: Pseudomonas aeruginosa; experiment: Antimicrobial activity against Pseudomonas aeruginosa isolate 15110c from fibrosis patient by Etest; type: functional
[8] = system: Pseudomonas aeruginosa; experiment: Antimicrobial activity against Pseudomonas aeruginosa isolate 1726 from fibrosis patient by Etest; type: functional
[9] = system: Pseudomonas aeruginosa; experiment: Antimicrobial activity against Pseudomonas aeruginosa isolate 1681c from fibrosis patient by Etest; type: functional
[10] = system: Pseudomonas aeruginosa; experiment: Antimicrobial activity against Pseudomonas aeruginosa isolate 16008 from fibrosis patient by Etest; type: functional
[11] = system: Pseudomonas aeruginosa; experiment: Antimicrobial activity against Pseudomonas aeruginosa isolate 3149 from fibrosis patient by Etest; type: functional
[12] = system: Pseudomonas aeruginosa; experiment: Antimicrobial activity against Pseudomonas aeruginosa isolate 1693c from fibrosis patient by Etest; type: functional
[13] = system: Pseudomonas aeruginosa; experiment: Antimicrobial activity against Pseudomonas aeruginosa isolate 15107 from fibrosis patient by Etest; type: functional
[14] = system: Pseudomonas aeruginosa; experiment: Antimicrobial activity against Pseudomonas aeruginosa isolate 1240 from fibrosis patient by Etest; type: functional
[15] = system: Pseudomonas aeruginosa; experiment: Antimicrobial activity against Pseudomonas aeruginosa AHP Etest; type: functional
[16] = system: Pseudomonas aeruginosa; experiment: Antimicrobial activity against Pseudomonas aeruginosa isolate 1247c from fibrosis patient by Etest; type: functional
[17] = system: Pseudomonas aeruginosa; experiment: Antimicrobial activity against Pseudomonas aeruginosa isolate 13167 from fibrosis patient by Etest; type: functional
[18] = system: Pseudomonas aeruginosa; experiment: Antimicrobial activity against Pseudomonas aeruginosa R20 Etest; type: functional
[19] = system: Pseudomonas aeruginosa; experiment: Antimicrobial activity against Pseudomonas aeruginosa isolate 1352c from fibrosis patient by Etest; type: functional
[20] = system: Pseudomonas aeruginosa; experiment: Antimicrobial activity against Pseudomonas aeruginosa isolate 12102 from fibrosis patient by Etest; type: functional
[21] = system: Pseudomonas aeruginosa; experiment: Antimicrobial activity against Pseudomonas aeruginosa Z799/61 by Etest; type: functional
[22] = system: Pseudomonas aeruginosa; experiment: Antimicrobial activity against Pseudomonas aeruginosa isolate 17145c from fibrosis patient by Etest; type: functional
[23] = system: Pseudomonas aeruginosa; experiment: Antimicrobial activity against Pseudomonas aeruginosa isolate 12142c from fibrosis patient by Etest; type: functional
[24] = system: Pseudomonas aeruginosa; experiment: Antimicrobial activity against Pseudomonas aeruginosa isolate 1529c from fibrosis patient by Etest; type: functional
[25] = system: Pseudomonas aeruginosa; experiment: Antimicrobial activity against Pseudomonas aeruginosa isolate 1712c from fibrosis patient by Etest; type: functional
[26] = system: Pseudomonas aeruginosa; experiment: Antimicrobial activity against Pseudomonas aeruginosa isolate 1495c from fibrosis patient by Etest; type: functional
[27] = system: Pseudomonas aeruginosa; experiment: Antimicrobial activity against Pseudomonas aeruginosa isolate 1253 from fibrosis patient by Etest; type: functional
[28] = system: Pseudomonas aeruginosa; experiment: Antimicrobial activity against Pseudomonas aeruginosa isolate 1333c from fibrosis patient by Etest; type: functional
[29] = system: Pseudomonas aeruginosa; experiment: Antimicrobial activity against Pseudomonas aeruginosa isolate 1248c from fibrosis patient by Etest; type: functional
[30] = system: Pseudomonas aeruginosa; experiment: Antimicrobial activity against Pseudomonas aeruginosa M1251 by Etest
[31] = system: Pseudomonas aeruginosa; experiment: microbe, parasite or virus in culture; details: isolate 13120
Description: Antimicrobial activity against Pseudomonas aeruginosa isolate 13120 from fibrosis patient by Etest

[32] = system: Pseudomonas aeruginosa; experiment: microbe, parasite or virus in culture; details: 2779-con
Description: Antimicrobial activity against Pseudomonas aeruginosa 2779-con by Etest

Compound | MIC [2] [µg/mL] | MIC [3] [µg/mL] | MIC [4] [µg/mL] | MIC [6] [µg/mL] | MIC [7] [µg/mL] | MIC [8] [µg/mL] | MIC [9] [µg/mL] | MIC [10] [µg/mL] | MIC [11] [µg/mL] | MIC [12] [µg/mL] | MIC [13] [µg/mL] | MIC [14] [µg/mL] | MIC [15] [µg/mL] | MIC [16] [µg/mL] | MIC [21] [µg/mL] | MIC [22] [µg/mL] | MIC [23] [µg/mL] | MIC [25] [µg/mL] | MIC [26] [µg/mL] | MIC [29] [µg/mL] | also measured
GENTAMICIN | 32 | 16 | 1 | 32 | > 32 | 2 | 32 | 16 | > 32 | 16 | > 32 | 2 | < 0.12 | > 32 | < 0.12 | 32 | > 32 | > 32 | > 64 | > 32 | MIC [1]: 2 µg/mL; MIC [5]: 1 µg/mL; MIC [17]: 32 µg/mL; MIC [18]: < 0.25 µg/mL; MIC [19]: > 32 µg/mL; MIC [20]: 4 µg/mL; MIC [24]: > 32 µg/mL; MIC [27]: 16 µg/mL; MIC [28]: > 32 µg/mL
CC1(C)S[C@@H]2[C@H](NC(=O)C(C(=O)O)c3ccccc3)C(=O)N2[C@H]1C(=O)O (stereo partly specified) [CARBENICILLIN] | 512 (≈ 1350 µM) | > 512 | 512 (≈ 1350 µM) | 64 (≈ 169 µM) | > 512 | ≤ 16 | 512 (≈ 1350 µM) | ≤ 16 | > 512 | 128 (≈ 338 µM) | 128 (≈ 338 µM) | 128 (≈ 338 µM) | 32 (≈ 84.6 µM) | 128 (≈ 338 µM) | ≤ 16 | ≤ 16 | > 512 | > 512 | > 512 | > 512 | MIC [1]: 512 µg/mL (≈ 1350 µM); MIC [5]: > 512 µg/mL; MIC [30]: 512 µg/mL (≈ 1350 µM); MIC [31]: 256 µg/mL (≈ 677 µM); MIC [17]: > 512 µg/mL; MIC [32]: 128 µg/mL (≈ 338 µM); MIC [18]: 64 µg/mL (≈ 169 µM); MIC [19]: 512 µg/mL (≈ 1350 µM); MIC [20]: 256 µg/mL (≈ 677 µM); MIC [24]: 8 µg/mL (≈ 21.1 µM); MIC [27]: 256 µg/mL (≈ 677 µM); MIC [28]: > 512 µg/mL
NC[C@H]1O[C@H](O[C@H]2[C@H](O)[C@@H](O[C@H]3O[C@H](CO)[C@@H](O)[C@H](N)[C@H]3O)[C@H](N)C[C@@H]2N)[C@H](N)C[C@@H]1O [TOBRAMYCIN] | 4 (≈ 8.56 µM) | 32 (≈ 68.4 µM) | 0.5 (≈ 1.07 µM) | 4 (≈ 8.56 µM) | > 32 | 0.5 (≈ 1.07 µM) | 16 (≈ 34.2 µM) | 4 (≈ 8.56 µM) | > 32 | 2 (≈ 4.28 µM) | 2 (≈ 4.28 µM) | 0.5 (≈ 1.07 µM) | ≤ 0.12 | 8 (≈ 17.1 µM) | 0.25 (≈ 0.535 µM) | 16 (≈ 34.2 µM) | > 32 | 16 (≈ 34.2 µM) | 8 (≈ 17.1 µM) | 32 (≈ 68.4 µM) | MIC [1]: 2 µg/mL (≈ 4.28 µM); MIC [5]: 0.5 µg/mL (≈ 1.07 µM); MIC [30]: 0.25 µg/mL (≈ 0.535 µM); MIC [31]: 0.25 µg/mL (≈ 0.535 µM); MIC [17]: 4 µg/mL (≈ 8.56 µM); MIC [32]: 1 µg/mL (≈ 2.14 µM); MIC [18]: 0.5 µg/mL (≈ 1.07 µM); MIC [19]: 16 µg/mL (≈ 34.2 µM); MIC [20]: 1 µg/mL (≈ 2.14 µM); MIC [24]: 16 µg/mL (≈ 34.2 µM); MIC [27]: 4 µg/mL (≈ 8.56 µM); MIC [28]: 8 µg/mL (≈ 17.1 µM)
CC(C)(O/N=C(\C(=O)N[C@@H]1C(=O)N2C(C(=O)[O-])=C(C[n+]3ccccc3)CS[C@H]12)c1csc(N)n1)C(=O)O [CEFTAZIDIME] | 8 (≈ 14.6 µM) | 256 (≈ 468 µM) | 64 (≈ 117 µM) | 4 (≈ 7.32 µM) | 256 (≈ 468 µM) | 2 (≈ 3.66 µM) | 256 (≈ 468 µM) |  | 8 (≈ 14.6 µM) | 8 (≈ 14.6 µM) | 8 (≈ 14.6 µM) | 256 (≈ 468 µM) | 0.5 (≈ 0.915 µM) | 8 (≈ 14.6 µM) | ≤ 0.12 | 64 (≈ 117 µM) | 256 (≈ 468 µM) | > 256 | > 256 | 256 (≈ 468 µM) | MIC [1]: 64 µg/mL (≈ 117 µM); MIC [5]: 8 µg/mL (≈ 14.6 µM); MIC [30]: 4 µg/mL (≈ 7.32 µM); MIC [31]: 4 µg/mL (≈ 7.32 µM); MIC [17]: 64 µg/mL (≈ 117 µM); MIC [32]: 32 µg/mL (≈ 58.5 µM); MIC [19]: 64 µg/mL (≈ 117 µM); MIC [20]: 4 µg/mL (≈ 7.32 µM); MIC [24]: 4 µg/mL (≈ 7.32 µM); MIC [27]: 8 µg/mL (≈ 14.6 µM); MIC [28]: 128 µg/mL (≈ 234 µM)
C[C@@H](O)[C@H]1C(=O)N2C(C(=O)O)=C(SCCNC=N)C[C@H]12 [IMIPENEM ANHYDROUS] | 16 (≈ 53.4 µM) | 64 (≈ 214 µM) | 128 (≈ 428 µM) | 8 (≈ 26.7 µM) | > 32 | 4 (≈ 13.4 µM) | 32 (≈ 107 µM) | 64 (≈ 214 µM) | 32 (≈ 107 µM) | 8 (≈ 26.7 µM) | 8 (≈ 26.7 µM) | 16 (≈ 53.4 µM) | 0.12 (≈ 0.401 µM) | 16 (≈ 53.4 µM) | 0.5 (≈ 1.67 µM) | 32 (≈ 107 µM) | 32 (≈ 107 µM) | 32 (≈ 107 µM) | > 32 | 16 (≈ 53.4 µM) | MIC [1]: 16 µg/mL (≈ 53.4 µM); MIC [5]: 16 µg/mL (≈ 53.4 µM); MIC [30]: 4 µg/mL (≈ 13.4 µM); MIC [31]: 16 µg/mL (≈ 53.4 µM); MIC [17]: 4 µg/mL (≈ 13.4 µM); MIC [32]: 2 µg/mL (≈ 6.68 µM); MIC [18]: 2 µg/mL (≈ 6.68 µM); MIC [19]: > 32 µg/mL; MIC [20]: 32 µg/mL (≈ 107 µM); MIC [24]: 16 µg/mL (≈ 53.4 µM); MIC [27]: > 32 µg/mL; MIC [28]: 32 µg/mL (≈ 107 µM)
O=C(O)c1cn(C2CC2)c2cc(N3CCNCC3)c(F)cc2c1=O [CIPROFLOXACIN] | 1 (≈ 3.02 µM) | 4 (≈ 12.1 µM) |  |  |  |  |  | 4 (≈ 12.1 µM) | > 8 | 1 (≈ 3.02 µM) |  |  | ≤ 0.12 | 4 (≈ 12.1 µM) | ≤ 0.12 | 4 (≈ 12.1 µM) | 4 (≈ 12.1 µM) | 4 (≈ 12.1 µM) | 4 (≈ 12.1 µM) | 4 (≈ 12.1 µM) | MIC [32]: ≤ 0.12 µg/mL; MIC [18]: ≤ 0.12 µg/mL
C[C@H]1[C@H](NC(=O)/C(=N\OC(C)(C)C(=O)O)c2csc(N)n2)C(=O)N1S(=O)(=O)O [AZTREONAM] |  | > 64 | > 64 | 2 (≈ 4.59 µM) | > 64 | 0.5 (≈ 1.15 µM) | 32 (≈ 73.5 µM) | 0.5 (≈ 1.15 µM) | 64 (≈ 147 µM) | 1 (≈ 2.3 µM) | 2 (≈ 4.59 µM) | 4 (≈ 9.19 µM) | 0.5 (≈ 1.15 µM) | 4 (≈ 9.19 µM) | ≤ 0.12 | 0.5 (≈ 1.15 µM) | > 64 | > 64 | > 64 | > 64 | MIC [30]: 32 µg/mL (≈ 73.5 µM); MIC [31]: 16 µg/mL (≈ 36.7 µM); MIC [17]: 16 µg/mL (≈ 36.7 µM); MIC [32]: 32 µg/mL (≈ 73.5 µM); MIC [19]: 32 µg/mL (≈ 73.5 µM); MIC [24]: 0.5 µg/mL (≈ 1.15 µM); MIC [27]: 16 µg/mL (≈ 36.7 µM)
